The results in this text go back to ChEMBL document CHEMBL5291721, “A preclinical secondary pharmacology resource illuminates target-adverse drug reaction associations of marketed drugs” (Nat Commun, 2023).

The target of assay [1] is T1, Alpha-1A adrenergic receptor (Homo sapiens, UniProt P35348).
T1 sequence (P35348 whole entry): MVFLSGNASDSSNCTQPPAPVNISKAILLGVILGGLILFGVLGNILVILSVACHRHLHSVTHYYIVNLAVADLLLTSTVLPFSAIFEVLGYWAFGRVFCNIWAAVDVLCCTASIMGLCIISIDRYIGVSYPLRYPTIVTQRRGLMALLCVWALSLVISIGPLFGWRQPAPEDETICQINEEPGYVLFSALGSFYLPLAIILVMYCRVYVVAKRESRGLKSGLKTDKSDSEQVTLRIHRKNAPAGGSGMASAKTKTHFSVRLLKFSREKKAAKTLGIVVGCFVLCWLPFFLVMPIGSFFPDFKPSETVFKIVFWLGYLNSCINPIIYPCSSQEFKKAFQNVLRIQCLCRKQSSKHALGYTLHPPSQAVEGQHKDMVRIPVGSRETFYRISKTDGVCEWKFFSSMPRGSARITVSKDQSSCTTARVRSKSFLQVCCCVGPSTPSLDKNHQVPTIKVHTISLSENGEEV
The format is functional, cell-based.

Assay [2] concerns the target T2, Alpha-2A adrenergic receptor (Homo sapiens, UniProt P08913).
T2 sequence (P08913 whole entry): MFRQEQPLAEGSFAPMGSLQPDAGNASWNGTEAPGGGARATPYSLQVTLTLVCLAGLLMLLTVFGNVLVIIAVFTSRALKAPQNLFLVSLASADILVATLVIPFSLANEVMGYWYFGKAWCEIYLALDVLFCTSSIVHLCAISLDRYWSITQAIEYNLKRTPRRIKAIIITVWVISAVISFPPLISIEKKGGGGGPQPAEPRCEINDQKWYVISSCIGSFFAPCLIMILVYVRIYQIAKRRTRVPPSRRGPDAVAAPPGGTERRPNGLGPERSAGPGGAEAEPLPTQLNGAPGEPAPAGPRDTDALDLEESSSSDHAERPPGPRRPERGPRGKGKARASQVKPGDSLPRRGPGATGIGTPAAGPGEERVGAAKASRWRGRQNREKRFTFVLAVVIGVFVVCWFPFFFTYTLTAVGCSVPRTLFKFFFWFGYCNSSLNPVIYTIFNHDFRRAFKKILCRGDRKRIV

Assay [3] addresses T3, Alpha-2B adrenergic receptor (Homo sapiens, UniProt P18089).
T3 sequence (P18089 whole entry): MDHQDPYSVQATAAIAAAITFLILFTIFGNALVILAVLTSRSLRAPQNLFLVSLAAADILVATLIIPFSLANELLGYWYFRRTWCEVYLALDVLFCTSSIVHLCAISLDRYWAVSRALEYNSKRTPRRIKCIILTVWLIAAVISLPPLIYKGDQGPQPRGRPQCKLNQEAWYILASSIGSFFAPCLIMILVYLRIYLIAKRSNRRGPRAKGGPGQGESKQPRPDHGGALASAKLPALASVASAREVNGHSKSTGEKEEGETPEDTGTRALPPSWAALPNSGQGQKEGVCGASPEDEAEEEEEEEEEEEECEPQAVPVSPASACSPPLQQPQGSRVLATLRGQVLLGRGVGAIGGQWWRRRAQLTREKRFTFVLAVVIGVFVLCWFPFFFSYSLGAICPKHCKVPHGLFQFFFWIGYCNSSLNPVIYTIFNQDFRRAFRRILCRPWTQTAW

The target of another assay is T4, Estrogen receptor (Homo sapiens, UniProt P03372).
T4 sequence (P03372 whole entry): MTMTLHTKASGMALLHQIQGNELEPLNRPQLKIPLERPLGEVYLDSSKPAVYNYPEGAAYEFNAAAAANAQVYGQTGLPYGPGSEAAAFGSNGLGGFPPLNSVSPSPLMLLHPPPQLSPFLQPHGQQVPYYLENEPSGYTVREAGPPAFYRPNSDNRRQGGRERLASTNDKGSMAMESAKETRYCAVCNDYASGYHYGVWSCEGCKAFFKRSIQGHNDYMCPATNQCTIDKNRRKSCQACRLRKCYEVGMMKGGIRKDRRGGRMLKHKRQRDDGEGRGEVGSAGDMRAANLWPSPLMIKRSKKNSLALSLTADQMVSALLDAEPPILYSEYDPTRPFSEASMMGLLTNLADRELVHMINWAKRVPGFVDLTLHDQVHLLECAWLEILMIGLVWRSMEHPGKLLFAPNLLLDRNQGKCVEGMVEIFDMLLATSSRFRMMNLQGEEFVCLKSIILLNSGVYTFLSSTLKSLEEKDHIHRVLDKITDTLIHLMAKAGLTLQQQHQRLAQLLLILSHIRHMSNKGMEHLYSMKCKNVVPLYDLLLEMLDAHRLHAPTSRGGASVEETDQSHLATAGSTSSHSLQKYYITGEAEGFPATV

Assay [4] addresses Gamma-aminobutyric acid receptor subunit alpha-1/alpha-2/beta-2/gamma-2 (Homo sapiens, UniProt P14867+P18507+P47869+P47870). The format is protein-complex assay.
Assay [5] deals with T5, Neuropeptide Y receptor type 1 (Homo sapiens, UniProt P25929).
T5 sequence (P25929 whole entry): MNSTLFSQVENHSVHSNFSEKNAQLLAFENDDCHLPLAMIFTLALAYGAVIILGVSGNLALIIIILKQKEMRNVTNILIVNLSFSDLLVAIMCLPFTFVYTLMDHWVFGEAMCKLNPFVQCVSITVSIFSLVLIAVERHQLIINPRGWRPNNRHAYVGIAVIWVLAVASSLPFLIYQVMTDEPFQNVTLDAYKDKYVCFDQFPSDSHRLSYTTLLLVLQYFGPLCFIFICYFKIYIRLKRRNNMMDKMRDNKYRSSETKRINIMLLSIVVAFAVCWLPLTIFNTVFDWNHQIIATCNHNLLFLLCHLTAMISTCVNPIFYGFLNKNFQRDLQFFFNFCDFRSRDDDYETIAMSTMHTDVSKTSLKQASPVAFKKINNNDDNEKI

The target in assay [6] is Kappa-type opioid receptor (Homo sapiens, UniProt P41145).
Assay [7] deals with Sodium-dependent dopamine transporter (Homo sapiens, UniProt Q01959).
Further: assay procedure not described here.

Chain of Kappa-type opioid receptor (P41145 whole entry): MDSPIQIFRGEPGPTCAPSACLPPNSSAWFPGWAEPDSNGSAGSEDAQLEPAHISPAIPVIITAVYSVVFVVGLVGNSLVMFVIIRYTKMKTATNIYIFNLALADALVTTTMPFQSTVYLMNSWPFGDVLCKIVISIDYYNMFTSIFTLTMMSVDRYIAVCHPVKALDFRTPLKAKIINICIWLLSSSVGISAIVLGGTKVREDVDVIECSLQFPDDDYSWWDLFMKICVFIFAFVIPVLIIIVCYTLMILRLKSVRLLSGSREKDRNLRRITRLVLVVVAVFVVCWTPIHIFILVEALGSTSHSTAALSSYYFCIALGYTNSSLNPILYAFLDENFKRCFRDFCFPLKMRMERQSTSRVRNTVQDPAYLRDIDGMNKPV
Chain of Sodium-dependent dopamine transporter (Q01959 whole entry): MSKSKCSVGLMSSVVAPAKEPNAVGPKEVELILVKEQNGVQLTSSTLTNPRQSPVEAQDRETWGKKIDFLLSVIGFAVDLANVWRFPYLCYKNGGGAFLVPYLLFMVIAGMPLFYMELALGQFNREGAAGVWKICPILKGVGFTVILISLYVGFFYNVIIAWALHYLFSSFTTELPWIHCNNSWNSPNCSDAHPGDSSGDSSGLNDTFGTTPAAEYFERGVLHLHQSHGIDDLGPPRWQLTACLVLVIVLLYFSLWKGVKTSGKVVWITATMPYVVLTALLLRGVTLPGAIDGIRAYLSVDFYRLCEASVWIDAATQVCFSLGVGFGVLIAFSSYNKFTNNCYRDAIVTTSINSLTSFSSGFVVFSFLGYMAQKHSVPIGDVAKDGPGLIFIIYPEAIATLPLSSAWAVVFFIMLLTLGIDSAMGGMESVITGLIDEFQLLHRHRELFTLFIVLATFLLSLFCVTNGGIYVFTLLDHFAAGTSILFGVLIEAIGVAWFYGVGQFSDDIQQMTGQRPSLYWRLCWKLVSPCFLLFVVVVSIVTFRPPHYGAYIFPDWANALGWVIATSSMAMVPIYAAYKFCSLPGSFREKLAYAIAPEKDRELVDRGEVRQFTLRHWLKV
Chain of Gamma-aminobutyric acid receptor subunit alpha-1/alpha-2/beta-2/gamma-2 (P14867 whole entry): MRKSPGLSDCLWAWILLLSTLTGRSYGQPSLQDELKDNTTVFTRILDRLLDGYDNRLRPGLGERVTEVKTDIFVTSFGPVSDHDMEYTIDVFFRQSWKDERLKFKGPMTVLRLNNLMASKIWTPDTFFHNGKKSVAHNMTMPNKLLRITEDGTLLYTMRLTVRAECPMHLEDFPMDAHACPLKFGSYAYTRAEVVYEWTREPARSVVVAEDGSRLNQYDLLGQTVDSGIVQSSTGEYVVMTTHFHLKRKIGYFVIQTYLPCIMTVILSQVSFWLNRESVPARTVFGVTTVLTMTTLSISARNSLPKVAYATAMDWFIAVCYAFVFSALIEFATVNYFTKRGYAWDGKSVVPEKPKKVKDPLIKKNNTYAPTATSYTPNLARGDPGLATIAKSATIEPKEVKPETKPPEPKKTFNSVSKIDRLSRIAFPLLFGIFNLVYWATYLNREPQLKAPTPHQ
Chain of Gamma-aminobutyric acid receptor subunit alpha-1/alpha-2/beta-2/gamma-2 (P47870 whole entry): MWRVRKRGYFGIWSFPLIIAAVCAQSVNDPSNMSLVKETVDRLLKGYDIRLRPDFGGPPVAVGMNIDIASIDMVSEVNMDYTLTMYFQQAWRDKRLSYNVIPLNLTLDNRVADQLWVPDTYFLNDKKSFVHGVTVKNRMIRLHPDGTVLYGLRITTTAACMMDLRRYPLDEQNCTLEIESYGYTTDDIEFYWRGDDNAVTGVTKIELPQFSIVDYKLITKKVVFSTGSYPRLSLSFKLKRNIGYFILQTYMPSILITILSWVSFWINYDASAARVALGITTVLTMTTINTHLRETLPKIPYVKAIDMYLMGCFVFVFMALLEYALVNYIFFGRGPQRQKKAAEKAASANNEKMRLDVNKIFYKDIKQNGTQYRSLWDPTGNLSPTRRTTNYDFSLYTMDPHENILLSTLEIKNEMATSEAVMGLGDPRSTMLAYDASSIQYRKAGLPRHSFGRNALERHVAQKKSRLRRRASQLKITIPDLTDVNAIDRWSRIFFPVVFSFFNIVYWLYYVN
Chain of Gamma-aminobutyric acid receptor subunit alpha-1/alpha-2/beta-2/gamma-2 (P18507 whole entry): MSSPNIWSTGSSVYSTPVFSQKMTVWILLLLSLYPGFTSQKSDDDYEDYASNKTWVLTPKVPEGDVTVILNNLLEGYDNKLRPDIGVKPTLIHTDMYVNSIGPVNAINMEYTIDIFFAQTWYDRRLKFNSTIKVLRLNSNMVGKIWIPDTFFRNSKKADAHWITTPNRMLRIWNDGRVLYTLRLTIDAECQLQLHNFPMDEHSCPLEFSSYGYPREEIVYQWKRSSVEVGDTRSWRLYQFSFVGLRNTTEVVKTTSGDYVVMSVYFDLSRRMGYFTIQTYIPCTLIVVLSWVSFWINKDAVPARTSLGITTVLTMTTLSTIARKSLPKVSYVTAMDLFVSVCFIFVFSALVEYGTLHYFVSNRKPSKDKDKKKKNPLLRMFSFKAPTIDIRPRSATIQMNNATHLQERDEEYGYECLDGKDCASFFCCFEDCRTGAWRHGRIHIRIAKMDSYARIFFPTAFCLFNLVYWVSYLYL
Chain of Gamma-aminobutyric acid receptor subunit alpha-1/alpha-2/beta-2/gamma-2 (P47869 whole entry): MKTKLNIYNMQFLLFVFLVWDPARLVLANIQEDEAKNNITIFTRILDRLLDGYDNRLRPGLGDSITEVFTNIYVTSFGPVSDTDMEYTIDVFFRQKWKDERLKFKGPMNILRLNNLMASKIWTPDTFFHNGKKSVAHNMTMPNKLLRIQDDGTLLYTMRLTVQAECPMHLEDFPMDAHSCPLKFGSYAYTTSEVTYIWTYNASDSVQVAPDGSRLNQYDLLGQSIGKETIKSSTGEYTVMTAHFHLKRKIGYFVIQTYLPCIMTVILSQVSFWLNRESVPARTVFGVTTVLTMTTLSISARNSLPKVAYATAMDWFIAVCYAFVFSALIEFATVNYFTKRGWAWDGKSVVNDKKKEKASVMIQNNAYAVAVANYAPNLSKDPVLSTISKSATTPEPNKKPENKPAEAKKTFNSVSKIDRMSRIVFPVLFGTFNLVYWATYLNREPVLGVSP

Turning to `CC(C(=O)O)c1ccc(N2CC=CC2)c(Cl)c1` (centres undefined) [PIRPROFEN], the AC50 is > 30 µM in assay [1]; > 30 µM in assay [2]; > 10 µM in assay [3]; > 30 µM at Estrogen receptor; > 30 µM in assay [4]; > 30 µM in assay [5]. For the same molecule, the AC50 in assay [6] is > 10 µM; in assay [7], > 30 µM.

Turning to `Nc1nc(N)c2nc(-c3ccccc3)c(N)nc2n1`, the concentration at half-maximal activity (AC50) (in assay [1]; in assay [2]; at Estrogen receptor; in assay [4]; in assay [5]; in assay [6]) was > 30 µM in each case. Besides, the AC50 in assay [7] was > 30 µM.

In the case of `CC(C)C(=O)Nc1ccc([N+](=O)[O-])c(C(F)(F)F)c1` [FLUTAMIDE], the AC50 is 9.04 µM in assay [1]; > 30 µM in assay [2]; > 10 µM on Estrogen receptor; > 10 µM in assay [4]; > 30 µM in assay [5]; > 10 µM in assay [6]. Moreover, the AC50 in assay [7] was > 30 µM.

For `NC(=O)c1cnccn1` [PYRAZINAMIDE], the AC50 (in assay [1]; in assay [2]; at Estrogen receptor; in assay [4]; in assay [5]; in assay [6]) was > 30 µM each time. The AC50 in assay [7] was > 30 µM.

For `CN(CCOc1ccc(NS(C)(=O)=O)cc1)CCc1ccc(NS(C)(=O)=O)cc1` [DOFETILIDE], the AC50 in assay [1] is > 30 µM; in assay [2], > 30 µM; in assay [3], > 10 µM; on Estrogen receptor, > 30 µM; in assay [4] it was > 30 µM; in assay [5], > 30 µM. In addition, the AC50 in assay [6] is > 10 µM; in assay [7], > 30 µM.

Regarding `Oc1ncnc2[nH]ncc12` [ALLOPURINOL], the AC50 in assay [1] was > 30 µM; in assay [2], > 30 µM; on Estrogen receptor it was > 30 µM; in assay [4], > 30 µM; in assay [5], > 30 µM; in assay [6], > 10 µM. In assay [7], the AC50 was > 30 µM.

The term AC50 denotes the concentration at which the activity in the assay is half-maximal.
